Measured values reported in US20230159620A1, “COMPOSITIONS AND METHODS OF TREATMENT FOR VASCULAR DISEASES AND THROMBOSIS” (Washington University, priority 2021, published 2023).

Experiments:
[1] = tested on: AKT; assay: AKT signaling immunoblot, platelets; type: cell-based, human; conditions: platelets pretreated with inhibitor before SVEP1
Procedure: Prior to performing signaling assays, cells were trypsinized, centrifuged, suspended in basal media, and counted using an automated hemocytometer. Cells were further diluted in basal media to an assay-dependent concentration. Cells were then incubated with gentle agitation for 60 minutes to prevent cell attachment and reduce basal signaling. PP1, Dynasore, MK-2206, and Rapamycin were diluted in DMSO and used in assay concentrations of 10 μM, 100 μM, 10 μM, and respectively, for the final 20-30 minutes of incubation in basal media. An equal volume of DMSO was used as the negative control condition. […] 1 μg Pearl 1 polyclonal antibody was added as a specific positive control. 20% growth media or 2% fetal bovine serum, labeled “Serum” in figures, was added as a non-specific positive control. The cells were centrifuged at 300G for 3 minutes with the exception of platelets, which were centrifuged at 500G for 5 minutes. The cells were then incubated at 37° C. for 8-45 minutes, depending on the cell type and pathway of interest. The cells were lysed in radioimmunoprecipitation buffer (RIPA) containing a cocktail of protease and phosphatase inhibitors and universal nuclease. Immunoblots were performed by standard techniques, as briefly follows. Protein content was determined using a bicinchoninic acid assay with BSA standards (#23225, Pierce BCA Protein Assay Kit). Cell lysates were then reduced with dithiothreitol (DTT) in lithium dodecyl sulfate (LDS) sample buffer (#NP0007, Invitrogen). Equal protein amounts were added to polyacrylamide gels (#4561086, BioRad) and electrophoresed prior to transferring to a nitrocellulose or polyvinylidene fluoride membrane (#1620260, BioRad). Membranes were blocked in 5% BSA/Tris-buffered saline (TBS) with 0.1% Tween 20 for 30 minutes. The indicated primary antibodies were incubated with the pre-blocked membranes overnight at 4° C. Membranes were washed with TBS with 0.1% Tween 20, probed with fluorescent secondary antibodies, and imaged. β-actin or β-tubulin served as a loading control.
(§1) Whole blood was collected by venipuncture into either heparin vacutainers (BD, Franklin Lakes) for whole blood experiments or acid-citrate-dextrose (ACD) vacutainers (BD, Franklin Lakes) for platelet isolation studies. For platelet isolation, samples were supplemented with apyrase (Sigma, St Louis) and prostaglandin E1 (Cayman Chemical, Ann Arbor), and platelet-rich plasma (PRP) was prepared by centrifugation of the ACD whole blood for 20 minutes at 200G. Platelets were isolated from the PRP by centrifugation for 10 minutes at 1000G and resuspended in modified Tyrode's buffer twice at desired platelet counts and kept at 37° C. until used. Isolated platelets were used within 2 hours of preparation.

[2] = tested on: mTOR; assay: mTOR signaling immunoblot, platelets; type: cell-based, human; conditions: platelets pretreated with inhibitor before SVEP1
Procedure: Prior to performing signaling assays, cells were trypsinized, centrifuged, suspended in basal media, and counted using an automated hemocytometer. Cells were further diluted in basal media to an assay-dependent concentration. Cells were then incubated with gentle agitation for 60 minutes to prevent cell attachment and reduce basal signaling. […] An equal volume of DMSO was used as the negative control condition. […] 1 μg Pearl 1 polyclonal antibody was added as a specific positive control. 20% growth media or 2% fetal bovine serum, labeled “Serum” in figures, was added as a non-specific positive control. The cells were centrifuged at 300G for 3 minutes with the exception of platelets, which were centrifuged at 500G for 5 minutes. The cells were then incubated at 37° C. for 8-45 minutes, depending on the cell type and pathway of interest. The cells were lysed in radioimmunoprecipitation buffer (RIPA) containing a cocktail of protease and phosphatase inhibitors and universal nuclease. Immunoblots were performed by standard techniques, as briefly follows. […] Cell lysates were then reduced with dithiothreitol (DTT) in lithium dodecyl sulfate (LDS) sample buffer (#NP0007, Invitrogen). […] Membranes were blocked in 5% BSA/Tris-buffered saline (TBS) with 0.1% Tween 20 for 30 minutes. The indicated primary antibodies were incubated with the pre-blocked membranes overnight at 4° C. Membranes were washed with TBS with 0.1% Tween 20, probed with fluorescent secondary antibodies, and imaged. β-actin or β-tubulin served as a loading control.
as §1, with “Platelets were isolated from the PRP by centrifugation for 10 minutes at 1000G and resuspended in modified Tyrode's buffer twice at desired platelet counts and kept at 37° C. until used. Isolated platelets were used within 2 hours of preparation.” left out

[3] = Arterial blood pressure response to vasoactive agents; type: in vivo, mouse; conditions: venous administration, anesthetized Svep1+/+ and Svep1−/− mice
Procedure: Central arterial blood pressure and heart rate were measured under inhaled 1.5% isoflurane anesthesia and while mice were maintained at 37° C. using a heating pad and rectal thermometer, as done previously. Briefly, a midline incision was performed in the neck region; the thymus, muscle, and connective tissue were dissected away to isolate the right common carotid artery. After tying it distally and clamping it proximally, an incision was made in the right common carotid artery through which a Millar pressure transducer (model SPR-1000, Houston, Tex.) was introduced, the clamp was removed, and the transducer advanced to the ascending aorta. Once instrumentation was complete, arterial blood pressure (systolic, diastolic, and mean) and heart rate were recorded via the PowerLab® data acquisition system (ADlnstruments, Colorado Springs, Colo.). The average of a 3-minute period of stable recording was reported. Data were analyzed using LabChart® 8 for 673 MAC software (ADInstruments).
To assess the blood pressure response to vasoactive agents, after baseline blood pressure measurement, dissection was performed to visualize the left internal jugular (IJ) vein as done previously. Once identified, a small incision was made and PE-10 tubing was introduced and kept in place with a 6-0 silk suture. […]

[4] = tested on: AKT; assay: AKT signaling immunoblot / phospho-array, HUVECs; type: cell-based, human; conditions: PP1 10 μM, Dynasore 100 μM, vs DMSO
Procedure: Cellular reagents were purchased from various commercial vendors. Primary human umbilical vein endothelial cells (HUVECs) were obtained from Cell Applications Inc. and cultured according to the manufacture's recommendations. Primary human coronary artery smooth muscle cells were obtained from Invitrogen and were cultured according to the manufacture's recommendations. 293T cells were obtained from ATCC and were cultured according to the manufacture's recommendations. Mouse primary smooth muscle cells were obtained and cultured as described previously. Predesigned Silencer Select siRNA constructs targeting Pearl 1 and negative control siRNA were obtained from ThermoFisher. Transfections were performed using RNAiMAX or Lipofectamine 3000 transfection reagents according to the manufacturer's protocols. Cells were used for signaling assays 48 hours after transfection; efficient Pearl 1 knockdown or Pearl 1 overexpression was confirmed by immunoblot assays.
Prior to performing signaling assays, cells were trypsinized, centrifuged, suspended in basal media, and counted using an automated hemocytometer. Cells were further diluted in basal media to an assay-dependent concentration. Cells were then incubated with gentle agitation for 60 minutes to prevent cell attachment and reduce basal signaling. PP1, Dynasore, MK-2206, and Rapamycin were diluted in DMSO and used in assay concentrations of 10 μM, 100 μM, 10 μM, and respectively, for the final 20-30 minutes of incubation in basal media. An equal volume of DMSO was used as the negative control condition. […] 1 μg Pearl 1 polyclonal antibody was added as a specific positive control. 20% growth media or 2% fetal bovine serum, labeled “Serum” in figures, was added as a non-specific positive control. The cells were centrifuged at 300G for 3 minutes with the exception of platelets, which were centrifuged at 500G for 5 minutes. The cells were then incubated at 37° C. for 8-45 minutes, depending on the cell type and pathway of interest. The cells were lysed in radioimmunoprecipitation buffer (RIPA) containing a cocktail of protease and phosphatase inhibitors and universal nuclease. Immunoblots were performed by standard techniques, as briefly follows. Protein content was determined using a bicinchoninic acid assay with BSA standards (#23225, Pierce BCA Protein Assay Kit). Cell lysates were then reduced with dithiothreitol (DTT) in lithium dodecyl sulfate (LDS) sample buffer (#NP0007, Invitrogen). Equal protein amounts were added to polyacrylamide gels (#4561086, BioRad) and electrophoresed prior to transferring to a nitrocellulose or polyvinylidene fluoride membrane (#1620260, BioRad). Membranes were blocked in 5% BSA/Tris-buffered saline (TBS) with 0.1% Tween 20 for 30 minutes. […]

[5] = tested on: VSMCs; assay: VSMC proliferation assay (BrdU incorporation); type: cell-based, mouse
Procedure: Plates were UV sterilized before adding cells. […] For analysis of peritoneal macrophages, 4% thioglycolate-elicited peritoneal macrophages from Itg α9^MAC+/+ and Itg α9^MACfl/fl mice were suspended in BrdU dissolved in RPMI 1640 media containing 10% FBS. 2.5×10^4 cells were added to each well since peritoneal macrophages are smaller and have lower proliferation rates than VSMCs in culture.
Plates were ultraviolet (UV) sterilized before adding cells. […] Efficient Itgα9 knockdown was confirmed by qPCR.

Row | Compound | effect of inhibitor on activation of AKT by SVEP1 [1] | dependence of SVEP1-induced p70S6K Thr 389 phosphorylation on the inhibited protein or process [2] | change in blood pressure [3] | effect of inhibitor pretreatment on AKT activation by SVEP1 and Pearl 1 pAb [4] | other results
1 | NC1(c2ccc(-c3nc4ccn5c(=O)[nH]nc5c4cc3-c3ccccc3)cc2)CCC1 [MK-2206] | completely abrogated | partially dependent |  |  | 
2 | CNC[C@H](O)c1cccc(O)c1 [phenylephrine] |  |  | dose-dependent manner |  | 
3 | Cc1ccc(-c2nn(C(C)(C)C)c3ncnc(N)c23)cc1 [PP1] | completely abrogated | dependent |  | abrogated | 
4 | angiotensin II |  |  | dose-dependent manner |  | 
5 | C[C@H](NC(=O)Cc1cc(F)cc(F)c1)C(=O)N[C@H](C(=O)OC(C)(C)C)c1ccccc1 [DAPT, reference compound] |  |  |  |  | effect on cell proliferation in response to 10% fetal bovine serum ([5]; 25 μM DAPT): not significantly inhibited; effect on SVEP1-induced proliferation ([5]; 25 μM DAPT vs DMSO): completely abrogated
6 | O=C(N/N=C/c1ccc(O)c(O)c1)c1cc2ccccc2cc1O [Dynasore] | partially abrogated | partially dependent |  | abrogated | 
